ChEMBL document CHEMBL1139113, “Inhibition of the mitochondrial F1F0-ATPase by ligands of the peripheral benzodiazepine receptor” (Bioorg Med Chem Lett, 2007)

Molecular target: not listed separately
Assay: Inhibition of F1F0-ATPase hydrolysis activity in bovine submitochondrial particles
Design: species or system Bos taurus
Details: not given

Structure (SMILES)	EC50 [µM]
CN1C(=O)C(Cc2ccc3ccccc3c2)N=C(c2ccc(O)cc2)c2cc(Cl)ccc21 (stereo unspecified)	8.9
O=C1CN=C(c2ccccc2Cl)c2cc([N+](=O)[O-])ccc2N1 [CLONAZEPAM]	240
CN1C(=O)CN=C(c2ccccc2)c2cc(Cl)ccc21 [DIAZEPAM]	> 300
CCC(C)N(C)C(=O)c1cc2ccccc2c(-c2ccccc2Cl)n1 (stereo unspecified) [PK-11195]	230
CN1C(=O)CN=C(c2ccc(Cl)cc2)c2cc(Cl)ccc21 [RO-54864]	> 300

Molecular target: not listed separately
Assay: Inhibition of F1F0-ATPase synthesis activity in bovine submitochondrial particles
Design: species or system Bos taurus
Details: not given

Structure (SMILES)	EC50 [µM]
CN1C(=O)C(Cc2ccc3ccccc3c2)N=C(c2ccc(O)cc2)c2cc(Cl)ccc21 (stereo unspecified)	5.5
O=C1CN=C(c2ccccc2Cl)c2cc([N+](=O)[O-])ccc2N1 [CLONAZEPAM]	120
CN1C(=O)CN=C(c2ccccc2)c2cc(Cl)ccc21 [DIAZEPAM]	210
CCC(C)N(C)C(=O)c1cc2ccccc2c(-c2ccccc2Cl)n1 (stereo unspecified) [PK-11195]	33
CN1C(=O)CN=C(c2ccc(Cl)cc2)c2cc(Cl)ccc21 [RO-54864]	210

System: Ramos
Assay: Induction of reactive oxygen species response in Ramos cells after 1 hr
Format: functional, cell-based
Details: Homo sapiens

Structure (SMILES)	EC50 [µM]
CN1C(=O)C(Cc2ccc3ccccc3c2)N=C(c2ccc(O)cc2)c2cc(Cl)ccc21 (stereo unspecified)	7.3
O=C1CN=C(c2ccccc2Cl)c2cc([N+](=O)[O-])ccc2N1 [CLONAZEPAM]	> 300
CN1C(=O)CN=C(c2ccccc2)c2cc(Cl)ccc21 [DIAZEPAM]	170
CCC(C)N(C)C(=O)c1cc2ccccc2c(-c2ccccc2Cl)n1 (stereo unspecified) [PK-11195]	100
CN1C(=O)CN=C(c2ccc(Cl)cc2)c2cc(Cl)ccc21 [RO-54864]	180

System: Jurkat
Assay: Induction of reactive oxygen species response in Jurkat cells after 1 hr
Format: functional, cell-based
Details: Homo sapiens

Structure (SMILES)	EC50 [µM]
CN1C(=O)C(Cc2ccc3ccccc3c2)N=C(c2ccc(O)cc2)c2cc(Cl)ccc21 (stereo unspecified)	10
O=C1CN=C(c2ccccc2Cl)c2cc([N+](=O)[O-])ccc2N1 [CLONAZEPAM]	> 300
CN1C(=O)CN=C(c2ccccc2)c2cc(Cl)ccc21 [DIAZEPAM]	200
CCC(C)N(C)C(=O)c1cc2ccccc2c(-c2ccccc2Cl)n1 (stereo unspecified) [PK-11195]	56
CN1C(=O)CN=C(c2ccc(Cl)cc2)c2cc(Cl)ccc21 [RO-54864]	230

System: Ramos
Assay: Induction of cell death in Ramos cells after 24 hrs
Format: functional, cell-based
Details: Homo sapiens

Structure (SMILES)	EC50 [µM]
CN1C(=O)C(Cc2ccc3ccccc3c2)N=C(c2ccc(O)cc2)c2cc(Cl)ccc21 (stereo unspecified)	6.3
O=C1CN=C(c2ccccc2Cl)c2cc([N+](=O)[O-])ccc2N1 [CLONAZEPAM]	> 300
CN1C(=O)CN=C(c2ccccc2)c2cc(Cl)ccc21 [DIAZEPAM]	250
CCC(C)N(C)C(=O)c1cc2ccccc2c(-c2ccccc2Cl)n1 (stereo unspecified) [PK-11195]	90
CN1C(=O)CN=C(c2ccc(Cl)cc2)c2cc(Cl)ccc21 [RO-54864]	130

System: Jurkat
Assay: Induction of cell death in Jurkat cells after 24 hrs
Format: functional, cell-based
Details: Homo sapiens

Structure (SMILES)	EC50 [µM]
CN1C(=O)C(Cc2ccc3ccccc3c2)N=C(c2ccc(O)cc2)c2cc(Cl)ccc21 (stereo unspecified)	6
O=C1CN=C(c2ccccc2Cl)c2cc([N+](=O)[O-])ccc2N1 [CLONAZEPAM]	> 300
CN1C(=O)CN=C(c2ccccc2)c2cc(Cl)ccc21 [DIAZEPAM]	170
CCC(C)N(C)C(=O)c1cc2ccccc2c(-c2ccccc2Cl)n1 (stereo unspecified) [PK-11195]	75
CN1C(=O)CN=C(c2ccc(Cl)cc2)c2cc(Cl)ccc21 [RO-54864]	> 300

System: Jurkat
Assay: Induction of reactive oxygen species response in Jurkat cells at 75 uM after 1 hr
Format: functional, Homo sapiens
Details: not given

Structure (SMILES)	Activity [%]
CCC(C)N(C)C(=O)c1cc2ccccc2c(-c2ccccc2Cl)n1 (stereo unspecified) [PK-11195]	67.9

System: Jurkat
Assay: Induction of cell death in Jurkat cells at 75 uM in presence of Vitamin E after 24 hrs
Format: functional, Homo sapiens
Details: not given

Structure (SMILES)	Activity [%]
CCC(C)N(C)C(=O)c1cc2ccccc2c(-c2ccccc2Cl)n1 (stereo unspecified) [PK-11195]	55.9

System: Jurkat
Assay: Induction of reactive oxygen species response in Jurkat cells at 75 uM in presence of Mn(III)tetrakis(4-benzoic acid)porphyrin after 1 hr
Format: functional, Homo sapiens
Details: not given

Structure (SMILES)	Activity [%]
CCC(C)N(C)C(=O)c1cc2ccccc2c(-c2ccccc2Cl)n1 (stereo unspecified) [PK-11195]	39.7

System: Jurkat
Assay: Induction of reactive oxygen species response in Jurkat cells at 75 uM in presence of Vitamin E after 1 hr
Format: functional, Homo sapiens
Details: not given

Structure (SMILES)	Activity [%]
CCC(C)N(C)C(=O)c1cc2ccccc2c(-c2ccccc2Cl)n1 (stereo unspecified) [PK-11195]	33.9

System: Jurkat
Assay: Induction of cell death in Jurkat cells at 75 uM after 24 hrs
Format: functional, Homo sapiens
Details: not given

Structure (SMILES)	Activity [%]
CCC(C)N(C)C(=O)c1cc2ccccc2c(-c2ccccc2Cl)n1 (stereo unspecified) [PK-11195]	85.5

System: Jurkat
Assay: Induction of cell death in Jurkat cells at 75 uM in presence of Mn(III)tetrakis(4-benzoic acid)porphyrin after 24 hrs
Format: functional, Homo sapiens
Details: not given

Structure (SMILES)	Activity [%]
CCC(C)N(C)C(=O)c1cc2ccccc2c(-c2ccccc2Cl)n1 (stereo unspecified) [PK-11195]	68.9
